The target in this experiment is T1, N-acylethanolamine-hydrolyzing acid amidase (Homo sapiens, UniProt Q02083).
T1 sequence (Q02083 whole entry): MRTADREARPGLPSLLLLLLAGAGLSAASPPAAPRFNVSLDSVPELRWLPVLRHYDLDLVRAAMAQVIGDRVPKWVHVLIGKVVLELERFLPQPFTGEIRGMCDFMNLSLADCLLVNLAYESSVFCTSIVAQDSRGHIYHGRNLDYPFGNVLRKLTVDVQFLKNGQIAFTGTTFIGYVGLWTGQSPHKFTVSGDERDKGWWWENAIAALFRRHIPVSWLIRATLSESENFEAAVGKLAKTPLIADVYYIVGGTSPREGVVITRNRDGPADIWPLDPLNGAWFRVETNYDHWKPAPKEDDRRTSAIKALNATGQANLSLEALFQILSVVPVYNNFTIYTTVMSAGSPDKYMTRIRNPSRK
As to the kind of experiment: ChEBML_1558887. The procedure:
Inhibition of human NAAA expressed in HEK293 cells preincubated for 10 mins followed by N-(4-methyl-2-oxo-chromen-7-yl)-hexadecanamide substrate addition for 30 mins by microplate reader analysis

Structures are written as SMILES.

In general, IC50 refers to the concentration at which inhibition is half-maximal. Turning to `COc1ccc(CCCCOC(=O)N[C@H]2CNC2=O)cc1`, the IC50 amounted to 520 nM.

The values are drawn from BindingDB's records for doi:10.1016/j.ejmech.2016.01.046 (Italian Institute of Technology, 2016).
